Literature values in patent US7572596B2, “Modulation of the neuroendoctrine system as a therapy for motor neuron disease” (University of Pittsburgh of the Commonwealth System of …, priority 2004, dated 2009).

Legend:
[1] = tested on: human ALS patients; settings: 2003; for efficacy in human ALS patients: Groeneveld, Desnuelle, 2001
[2] = tested on: SOD1 transgenic mice; settings: Groeneveld, 2003, Desnuelle, 2001
[3] = tested on: transgenic model for multiple sclerosis; settings: direct administration; Fernandez et al, 2004

Structure (SMILES) | efficacy in human ALS patients [1] | efficacy in relieving the symptoms of ALS [2] | axonal pathology [3] | remyelination [3] | life expectancy of ALS patients ([1]; ALS patients, Miller)
Cc1c(C)c2c(c(C)c1O)CC[C@@](C)(CCC[C@H](C)CCC[C@H](C)CCCC(C)C)O2 [a-tocopherol] | minimal efficacy | some efficacy | – | – | –
CN(CC(=O)O)C(=N)N [Creatine] | minimal efficacy | some efficacy | – | – | –
NC(Cc1cc(I)c(Oc2cc(I)c(O)c(I)c2)c(I)c1)C(=O)O (stereo not shown) [T4] | – | – | neuroprotective for axonal pathology | enhances remyelination | –
Nc1nc2ccc(OC(F)(F)F)cc2s1 [Riluzole] | – | – | – | – | extends life expectancy by only a few months
